In patent US10201556B2, “Combination for use in treating diseases or conditions associated with melanoma, or treating diseases or conditions associated with activated B-raf pathway” (InteRNA Technologies B.V., priority 2012, dated 2019):
“Also recorded” adds a separate entry of the source.

Tests used:
[1] = tested on: BIRC5; test: Western blotting of BIRC5 protein levels; assay type: cell-based, human
Procedure: (§1) Transfection was performed as described in Example 4 in 6-well format. Proteins were isolated using RIPA buffer (50 mM Tris pH 8.0, 150 mM NaCL, 1% NP-40, 0.5% Sodium deoxycholate, 0.1% SDS), supplemented with Protease Inhibitor Cocktail (Sigma) and Halt™ Phosphatase Inhibitor Cocktail (Pierce/Thermo Scientific). Fifteen μg protein was loaded on a 12% Mini-PROTEAN® TGX™ Precast Gel (Bio-Rad), and proteins were transferred to Immun-Blot PVDF Membrane (Bio-Rad). Membranes were blocked in 5% milk or 5% BSA in TBS-T, and incubated O/N at 4° C. with primary antibodies against α-tubulin (1:5000), BRAF, pERK1/2, CDK4, RRM2 (all 1:1000), BCL-2 (1:500) (Santa Cruz), total-ERK1/2 (1:2000), BIRC5, AURKB (1:1000) (Cell Signaling), ERK1 (1:2000) (GeneTex). After incubation with appropriate secondary antibodies and western blot chemiluminescence substrate ECL (Pierce/Thermo Scientific), membranes were exposed to CL-XPosure Film (Pierce/Thermo Scientific).

[2] = tested on: BCL2; test: Western immunoblotting of BCL2 protein levels; assay type: cell-based, human
Procedure: (§2) As control a scrambled miRNA and a non-targeting siRNA pool were included. Proteins were harvested 72 hrs post transfection using RIPA buffer supplemented with HALT™ Phosphatase Inhibitor (Thermo Scientific) and Protease Inhibitor Cocktail (Sigma). […] The membranes were blocked in 5% milk in TBS-T and incubated O/N at 4° C. with primary antibodies to bRAF, total ERK1/2, phosphoERK1/2, CDK4, BCL2 and tubulin (Santa Cruz). After incubation with secondary goat-anti-mouse antibodies (Santa Cruz), membranes were developed using ECL (Pierce).
as §2, with “Proteins” for “As control a scrambled miRNA and a non-targeting siRNA pool were included. Proteins”
As control a scrambled miRNA was included. Proteins were harvested 72 hrs post transfection using RIPA buffer supplemented with HALT™ Phosphatase Inhibitor (Thermo Scientific) and Protease Inhibitor Cocktail (Sigma). Fifteen μg protein was loaded on 10% TGX acrylamide gels (Bio-Rad) and subsequently transferred to PVDF membranes. The membranes were blocked in 5% milk in TBS-T and incubated O/N at 4° C. with primary antibodies to bRAF, total ERK1/2, phosphoERK1/2, BCL2, CDK4 and tubulin (Santa Cruz). After incubation with secondary goat-anti-mouse antibodies (Santa Cruz), membranes were developed using ECL (Pierce).
as §1, with “Proteins” for “Transfection was performed as described in Example 4 in 6-well format. Proteins”, “Fifteen μg protein was loaded on a 12% Mini-PROTEAN® TGX™ Precast Gel (Bio-Rad), and proteins were transferred to Immun-Blot PVDF Membrane (Bio-Rad).” left out

[3] = A375 cells, increasing concentrations of mimic (FIG. 12c)
[4] = A2058, M249, M249-AR4 and M376, increasing concentrations of mimic (FIG. 14a)
[5] = A375Hu cells, 72 hrs, Western blot

## hsa-miR-3157-5p: mature miRNA mimic, SEQ ID NO 6 UUCAGCCAGGCUAGUGCAGUCU (listed as RNA, chemistry not given here)
[1]; [3]
  BIRC5 protein levels: most pronounced
[1]; [4]
  BIRC5 protein levels: strong downregulation
[2]; [5]
  BCL2 protein levels: significant reduction in BCL2 protein levels; also recorded: down-regulated
[2]; [3]
  BCL2 protein levels: strong reduction
[2]; [4]
  BCL2 protein levels: no effect
[2]; A2058 cells (vemurafenib resistant), 72 hrs post transfection, Western blot
  BCL2 protein levels: reduction; also recorded: down-regulated

## CCCS(=O)(=O)Nc1ccc(F)c(C(=O)c2c[nH]c3ncc(-c4ccc(Cl)cc4)cc23)c1F [Vemurafenib, N-(3-{[5-(4-chlorophenyl)-1H-pyrrolo[2,3-b]pyridin-3-yl]carbonyl}-2,4-difluorophenyl)propane-1-sulfonamide]
[1]; vemurafenib-resistant A2058, M249-AR4 and M376, 1 μM, 24 hrs (FIG. 14b)
  BIRC5 protein levels: protein levels similar to control-treated cells
[1]; vemurafenib-sensitive A375 and M249, 1 μM, 24 hrs (FIG. 14b)
  BIRC5 protein levels: downregulated
[2]; [5]
  BCL2 protein levels: but not CDK4 or BCL2
[2]; A375Hu cells, 72 hrs, Western blot, listed as PLX-4032
  BCL2 protein levels: not in reduction of CDK4 and BCL2 protein levels
